# Marks after values point to notes of the source that are not given here.
# Key:
# [1] = molecular target: T1, gamma-secretase complex (from CHO S1 cells) (Homo sapiens, UniProt P49768); experiment: Competitive displacement of biotinylated active site isostere (PS1/Nicastrin Western blot); type: binding
# T1 construct: expressed in transfected cells; host or cells: CHO S1 cells
# [2] = test system: APP metabolites in HEK293 cells stably expressing APPsw; experiment: APP metabolites by Western blot in inhibitor treated cells; conditions: approximately 1 X and 10 X ED50, overnight, cell extracts
# [3] = test system: Aβ production in SNC cells (CHO APPSw); experiment: SNC dual cell assay, secreted Aβ1-x ELISA; conditions: Cricetulus griseus; for EC50: read-out: SNC Aβ EC50; for IC50: read-out: IC50 for inhibition of Aβ production in the SNC assay
# [4] = test system: Notch signaling in SNC cells (rat NotchΔE, CBF-Luciferase); experiment: SNC dual cell assay, Notch signaling luciferase reporter; conditions: for EC50: Rattus norvegicus, read-out: SNC Notch Signaling EC50; for APP selectivity (cellular, SNC assay): text of Discussion
# [5] = Metabolism (N-glucuronidation); conditions: precluded longer-term studies in mice (or other models)
# brain Aβ in PDAPP mice = experiment: Acute reduction of brain Aβ in PDAPP mice; type: in vivo, mouse; conditions: for reduction of brain Aβ1-x: 3 h
# Protocol: (§1) Water and food were available ad libitum. […] Control animals were dosed with vehicle.
# Figure 4 Acute reduction of brain Aβ by ELN318463 in PDAPP (a) and FVB mice (b). The mice were dosed orally with vehicle, or ELN318463 at 30 mg/kg or 100 mg/kg and sacrificed 3 h post treatment. Brain Aβ1-x in PDAPP (a), or Aβx-40 in FVB (b) was quantified by ELISA following extraction in guanidine buffer as described in methods. ** denotes P < 0.01, *** denotes P < 0.001 by Mann-Whitney in A, and two-tailed Students t-test in (b). TEXT PRINTED IN THE PICTURE: (A) no label printed: Aβ reduction: 37% (30[mpk]); Aβ reduction: 48% (100[mpk]) | (B) no label printed: Aβ reduction: 18% (30[mpk]); Aβ reduction: 18% (100[mpk])
# [6] = Compound levels in plasma and brain by LC-MS-MS; conditions: for concentration at 3 h: mouse
# brain Aβx-40 in FVB mice [7] = experiment: Seven-day b.i.d. repeat dose study, brain Aβx-40; conditions: seven days; for reduction of brain Aβ: three hours post last dose
# [8] = test system: FVB mice (Math1 mRNA, body and organ weight, neutrophils); conditions: seven days b.i.d.; LY411575 5 mg/kg/dose; ELN475516 up to 1,000 mg/kg/dose
# brain Aβx-40 in FVB mice [9] = experiment: Acute reduction of brain Aβx-40 in wild-type FVB mice; type: in vivo, mouse
# Protocol: as §1
# Statistical significance was determined by ANOVA.
# [10] = test system: thymic Hes-1 mRNA (Notch signaling); experiment: Thymic Hes-1 mRNA after single dose in FVB mice (TaqMan RT-PCR); type: in vivo, mouse; conditions: three hours
# Protocol: as §1
# [11] = test system: duodenum and ileum of FVB mice; experiment: Seven-day b.i.d. repeat dose study, small intestine histopathology (goblet cell hyperplasia); conditions: for goblet cells in ileum sections / goblet cell hyperplasia: seven days b.i.d.; for goblet cells in ileum sections: H&E and PAS stained sections; for goblet cell hyperplasia: LY411575 5 mg/kg duodenum and ileum, ELN475516 any dose, duodenum
# PDAPP mouse = test system: PDAPP mouse; design: method as in earlier work; conditions: three and six months, doses which affected AD pathology; cited from earlier work
# brain Aβ in Tg2576 mice = test system: brain Aβ in Tg2576 mice; design: method as in PMID 19671883; conditions: cited from earlier work
# [12] = Oral bioavailability in rat; conditions: in vivo, read-out: oral bioavailability F
# [13] = single oral dose 30 mg/kg, three hours post dose
# [14] = 15 mg/kg/dose b.i.d., 7 days, N = 5
# [15] = 30 mg/kg/dose b.i.d., 7 days, N = 5
# [16] = 100 mg/kg/dose b.i.d., 7 days, N = 5
# [17] = 300 mg/kg/dose b.i.d., 7 days, N = 5
# [18] = 600 mg/kg/dose b.i.d., 7 days, N = 5
# [19] = 1,000 mg/kg/dose b.i.d., 7 days, N = 5
# [20] = ileum, among all mice of the ELN475516 treated groups
# [21] = 5 mg/kg/dose b.i.d., 7 days, goblet cell hyperplasia in affected animals
smiles,measurement,setting,value
"CC(C)C[C@H](NC(=O)[C@H](Cc1ccccc1)C[C@@H](O)[C@H](Cc1ccccc1)NC(=O)OC(C)(C)C)C(=O)N[C@@H](Cc1ccccc1)C(N)=O [L-685,458, tert-Butyl (2S,3R,5R)-6-((S)-1-((S)-1-amino-1-oxo-3-phenylpropan-2-ylamino)-4-methyl-1-oxopentan-2-ylamino)-5-benzyl-3-hydroxy-6-oxo-1-phenylhexan-2-ylcarbamate]",captured gamma-secretase complex competed,"[1]; co-incubation with 10 μM, 50 nM biotinylated probe, preliminary experiments",> 90%
same,"concentration for 50% displacement of biotinylated active site isostere probe, above IC50 in the gammaAPP assay",[1]; no added substrate,approximately three
same,effect on α-CTF and β-CTF of APP,[2],stabilize both α-CTF and β-CTF in a dose-dependent manner
same,EC50,[3],13.2 ± 4.5 nM
same,EC50,[4],184 ± 145 nM
NC(=O)[C@@H](CCC(F)(F)F)N(Cc1ccc(-c2ncon2)cc1F)S(=O)(=O)c1ccc(Cl)cc1 [BMS-708163],IC50,[3],1.13 nM
same,"APP selectivity (cellular, SNC assay)",[4],57 X
"O=S(=O)(c1ccc(Cl)cc1)N1C2CCCC1c1cn[nH]c1C2 (centres unmarked) [ELN475516, 10-((4-Chlorophenyl)sulfonyl)-4,5,6,7,8,9-hexahydro-1H-4,8-epiminocycloocta(c)pyrazole]",metabolic liability,[5],Limiting N-glucuronidation
same,reduction of cortical Aβ1-x,"brain Aβ in PDAPP mice; single oral dose 10 mg/kg, three hours",31%
same,reduction of brain Aβ1-x,brain Aβ in PDAPP mice; single oral dose 30 mg/kg,45%
same,terminal plasma compound levels,"[6]; acute single dose study, highest dose tested (300 mg/kg), FVB mice",12.3 µM
same,concentration at 3 h,"[6]; female, FVB, in vivo, 15 mg/kg",187 nM
same,concentration at 3 h,"[6]; female, FVB, in vivo, 1000 mg/kg/dose",12300 nM
same,reduction of brain Aβ,brain Aβx-40 in FVB mice [7]; 15 mg/kg/dose b.i.d. oral,33%
same,"maximal effect, reduction of brain Aβ",brain Aβx-40 in FVB mice [7]; >100 mg/kg b.i.d. oral,74%
same,EC50,[3],8.73 ± 3.96 nM
same,Math1 mRNA levels in duodenum and ileum,[8],No effects
same,EC50,[4],719 ± 225 nM
same,brain Aβ levels by 24 hours post dose,"brain Aβx-40 in FVB mice [9]; all treatment groups (30, 100, 300 mg/kg)",returning to baseline
same,reduction of brain Aβ,"brain Aβx-40 in FVB mice [9]; single oral dose 30 mg/kg, 10 hours post dose",28%
same,reduction of brain Aβx-40,brain Aβx-40 in FVB mice [9]; [13],40%
same,reduction of brain Aβ,"brain Aβx-40 in FVB mice [9]; single oral dose 100 mg/kg, 10 hours post dose",33%
same,reduction of brain Aβ,"brain Aβx-40 in FVB mice [9]; single oral dose 100 mg/kg, 14 hours post dose",14%
same,reduction of brain Aβ,"brain Aβx-40 in FVB mice [9]; single oral dose 300 mg/kg, 10 hours post dose",56%
same,reduction of brain Aβ,"brain Aβx-40 in FVB mice [9]; single oral dose 300 mg/kg, 14 hours post dose",29%
same,reduction of brain Aβx-40,"brain Aβx-40 in FVB mice [9]; single oral dose 300 mg/kg, three hours post dose",71%
same,time of maximal reduction of brain Aβ post dose,"brain Aβx-40 in FVB mice [9]; single oral dose 30, 100, 300 mg/kg",three
same,thymic Hes-1 mRNA,[10]; single oral dose 300 mg/kg (highest dose tested),statistically significant reduction
same,Duodenum # animals affected,[11]; [14],0
same,Ileum # animals affected,[11]; [14],0
same,Duodenum # animals affected,[11]; [15],0
same,Ileum # animals affected,[11]; [15],4
same,Ileum Mean severity score,"[11]; 30 mg/kg/dose b.i.d., 7 days, affected animals",0.5
same,Duodenum # animals affected,[11]; [16],0
same,Ileum # animals affected,[11]; [16],2
same,Ileum Mean severity score,"[11]; 100 mg/kg/dose b.i.d., 7 days, affected animals",1.25
same,Duodenum # animals affected,[11]; [17],0
same,Ileum # animals affected,[11]; [17],0
same,Duodenum # animals affected,[11]; [18],0
same,Ileum # animals affected,[11]; [18],2
same,Ileum Mean severity score,"[11]; 600 mg/kg/dose b.i.d., 7 days, affected animals",0.5
same,Duodenum # animals affected,[11]; [19],0
same,Ileum # animals affected,[11]; [19],1
same,Ileum Mean severity score,"[11]; 1,000 mg/kg/dose b.i.d., 7 days, affected animals",0.5
same,number of mice with a questionable increase in goblet cells,[11]; [20],8
same,number of mice with no increase in goblet cells,[11]; [20],21
same,goblet cells in ileum sections,[11],no apparent dose-related increase
same,goblet cell hyperplasia,[11],not observed
"C[C@H](NC(=O)[C@@H](O)c1cc(F)cc(F)c1)C(=O)N[C@@H]1C(=O)N(C)c2ccccc2-c2ccccc21 [LY411575, (S)-2-((S)-2-(3,5-Difluorophenyl)-2-hydroxyacetamido)-N-((S)-5-methyl-6-oxo-6,7-dihydro-5H-dibenzo(b,d)azepin-7-yl)propanamide, reference compound]",reduction of brain Aβ,brain Aβx-40 in FVB mice [7]; 5 mg/kg b.i.d. oral,83%
same,EC50,[3],0.116 ± 0.011 nM
same,Math1 mRNA levels in duodenum and ileum,[8],robust elevation
same,EC50,[4],1.8 ± 1.35 nM
same,reduction of brain Aβx-40,"brain Aβx-40 in FVB mice [9]; single oral dose 10 mg/kg, three hours post dose",74%
same,reduction of thymic Hes-1 mRNA,[10]; single oral dose 10 mg/kg,60%
same,Ileum # animals affected,"[11]; 5 mg/kg/dose b.i.d., 7 days, N = 5",5
same,Duodenum # animals affected,"[11]; 5 mg/kg/dose b.i.d., 7 days, N = 5 (tissue lost from one animal)",4*
same,Duodenum Mean severity score,[11]; [21],2
same,Ileum Mean severity score,[11]; [21],3
same,goblet cells in ileum sections,[11],moderate increase in goblet cells
same,goblet cell hyperplasia,[11],readily apparent
O=S(=O)(c1ccc(C(F)(F)F)cc1)N1c2cc(F)c(F)cc2-c2[nH]ncc2[C@H]1C1CC1 [ELND006],tolerability in chronic study,PDAPP mouse,well tolerated
O=S(=O)(N[C@H](CO)C(C(F)(F)F)C(F)(F)F)c1ccc(Cl)s1 [GSI-953],dose producing a similar magnitude effect (33% brain Aβ reduction),brain Aβ in Tg2576 mice,5 mg/kg
same,IC50,[3],8 nM
same,"APP selectivity (cellular, SNC assay)",[4],45 X
same,reduction of brain Aβx-40,brain Aβx-40 in FVB mice [9]; [13],33%
"O=C1NCCCC[C@H]1N(Cc1ccc(Br)cc1)S(=O)(=O)c1ccc(Cl)cc1 [ELN318463, N-(4-Bromobenzyl)-4-chloro-N-((3R)-2-oxoazepan-3-yl)benzenesulfonamide]",displacement of biotinylated active site probe,[1]; in the absence of substrate,No displacement
same,reduction of Aβx-40,brain Aβ in PDAPP mice; 30 mg/kg oral,20%
same,reduction of Aβx-40,brain Aβ in PDAPP mice; 100 mg/kg oral,25%
same,reduction of brain Aβ1-x,brain Aβ in PDAPP mice; single oral dose 30 mg/kg,37%
same,reduction of brain Aβ1-x,brain Aβ in PDAPP mice; single oral dose 100 mg/kg,48%
same,concentration at 3 h,"[6]; PDAPP, brain, po, 30 mg/kg",690 nM
same,concentration at 3 h,"[6]; PDAPP, brain, po, 100 mg/kg",1870 nM
same,concentration at 3 h,"[6]; female, FVB/N, brain, po, 30 mg/kg",754 nM
same,concentration at 3 h,"[6]; female, FVB/N, brain, po, 100 mg/kg",2700 nM
same,bioavailability,[12],30%
same,EC50,[3],23.4 ± 8.6 nM
same,EC50,[4],2820 nM
same,Cellular Selectivity (APP/Notch),[4]; ratio of cellular Notch signaling and Aβ EC50,120
same,reduction of brain Aβx-40,brain Aβx-40 in FVB mice [9]; [13],18%
same,reduction of brain Aβx-40,"brain Aβx-40 in FVB mice [9]; single oral dose 100 mg/kg, 3 h post dose",18%
